{"source": "patent US20040151761A1", "about": "“Methods and compositions utilizing astaxanthin” (priority 2003, published 2004)", "key": {"[1]": {"test_system": "peripheral blood mononuclear cell (PBMC)", "experiment": "Lymphoproliferation in cats (whole blood)", "format": "in vivo, cat", "method": "Lymphoproliferation. Mitogen-induced peripheral blood mononuclear cell (PBMC) proliferation was assessed by incubating whole blood in the presence of PHA (0.25 and 1.25 mg/L final concentration), con A (0.5 and 2.5 mg/L), and pokeweed mitogen (PWM; 0.025 and 0.125 mg/L) as previously described (Chew et al., 2000). Whole blood was used in order to simulate in vivo conditions. Results are reported as stimulation index (cpm of mitogen-stimulated÷cpm of unstimulated cultures)."}, "[2]": {"test_system": "total T, Th, Tc, MHC II and CD21 lymphocyte populations", "experiment": "Leukocyte subsets in cats by flow cytometry", "format": "in vivo, cat", "settings": "by weeks 8 and 12, generally dose-dependent"}, "C-reactive protein (CRP)": {"test_system": "C-reactive protein (CRP)", "experiment": "Plasma C-reactive protein in dogs", "format": "in vivo, dog", "method": "C-Reactive protein. Changes in acute phase proteins were assessed in plasma by measuring the C-reactive protein (CRP) concentrations using horseradish peroxidase-labeled anti-canine CRP in a solid-phase sandwich immunoassay (Tri Delta Diagnostics, Morris Plains, N.J.)."}, "[3]": {"test_system": "Crandell feline kidney fibroblast cells (CrFK)", "experiment": "Natural killer cell cytotoxic activity in cats", "format": "in vivo, cat", "method": "Natural killer cell cytotoxic activity. Cultures of Crandell feline kidney fibroblast cells (CrFK, ATCC CRL-9761; Crandell et al., 1973) were grown in Dulbecco's Modified Eagles Medium (Sigma, St. Louis, Mo.) with 10% fetal bovine serum, 100 U/mL penicillin, and […] streptomycin sulfate. At 70-90% confluence, cells were trypsinized, washed and adjusted to 2×10^5 cells/mL. One hundred microliters of cell suspension was pipeted into each well of 96-well flat bottom plates (Nunclon, Denmark) and incubated at 37° C. for 8 hours. Ficoll-separated PBMC were adjusted to 1×10^6/mL or 2×10^6/mL and 100 μL of the cell suspensions were added to the CrFK target cells to provide effector:target cell ratios of 5:1 and 10:1. After incubating for 8 hours, 20 μL MTT (5 g/L) were added and the mixture incubated for 4 hours. The supernatant was removed and the formazan resuspended in 100 μL isopropanol. Optical density was measured at 550 nm and the percent of specific cytotoxicity calculated as follows:\n(§1) % Specific cytotoxicity=1−(ODeffector+target−ODeffector)/ODtarget×100."}, "[4]": {"test_system": "CD3, CD4, CD8, MHC II and CD21 lymphocyte subpopulations", "experiment": "Leukocyte subsets in dogs by flow cytometry", "format": "in vivo, dog", "from_the_text": "Leukocyte subset. Subpopulations of CD3 (total T), CD4 (Th), CD8 (Tc), MHC II (activated lymphocytes), and CD21 (mature B cells) were quantitated by flow cytometry on week 0, 6, 12 and 16 (Chew et al., 2000)."}, "splenocyte": {"test_system": "splenocyte", "settings": "mice (Chew et al., 1999); cited from earlier work"}, "[5]": {"test_system": "Canine thyroid adenocarcinoma cells (target cells)", "experiment": "Natural killer cell cytotoxic activity in dogs", "format": "in vivo, dog", "method": "Natural killer cell cytotoxic activity. Canine thyroid adenocarcinoma cells (target cells) were resuspended to 2×10^5 cells/mL in Dulbecco's Modified Eagles Medium (Sigma, St. Louis, Mo.) containing 100 mL/L fetal bovine serum, 100 U/mL penicillin, and […] streptomycin sulfate. Ficol-separated PBMC (effector cells) were resuspended to 1×10^6 and 2×10^6 cells/mL and 100 microliters added to the target cells in 96-well flat-bottom plates to provide effector:taiget ratios of 5:1 and 10:1. After incubating for 8 h, 20 microliters (5 g/L) of MTT were added and incubated for 4 hours. The supernatant was removed and the formazan resuspended in 100 microliters isopropanol. Optical density was measured at 550 nm and the percent of specific cytotoxicity calculated as follows:\nas §1"}, "Hematology in dogs": {"experiment": "Hematology in dogs", "format": "in vivo, dog", "settings": "throughout the study", "method": "Hematology. Complete blood count (white blood cell, RBC and platelet counts, lymphocyte, monocyte and granulocyte differential counts, hematocrit, hemoglobin, and mean corpuscular volume, hemoglobin and hemoglobin concentration, and platelet volume) was performed on a hematology analyzer (Vet ABC-Hematology Analyzer, Heska, Fort Collins, Colo.) using EDTA-treated blood."}, "mouse splenocytes": {"test_system": "mouse splenocytes", "settings": "cultured cell assay (Jyonouchi et al.); cited from earlier work"}, "Hematology in cats": {"experiment": "Hematology in cats", "parameters": "species or system cat", "settings": "in vivo", "method": "Hematology. Hematology parameters (white blood cell, RBC and platelet counts, lymphocyte, monocyte and granulocyte differential counts, hematocrit, hemoglobin, and mean corpuscular volume, hemoglobin and hemoglobin concentration, and platelet volume) were measured using a hematology analyzer (Vet ABC-Hematology Analyzer, Heska, Fort Collins, Colo.)."}}, "note": "“Also recorded” adds a separate entry of the source.", "data": [{"smiles": "CC1=C(/C=C/C(C)=C/C=C/C(C)=C/C=C/C=C(C)/C=C/C=C(C)/C=C/C2=C(C)C(=O)C(O)CC2(C)C)C(C)(C)CC(O)C1=O", "note": "(stereo not drawn) [astaxanthin, 3,3′-dihydroxy-beta, beta-carotene-4,4′-dione]", "values": [{"measurement": "proliferative response to ConA", "setting": "[1]; 1 mg, post-vaccination week 12", "value": "higher proliferative response"}, {"measurement": "proliferative response to PHA", "setting": "[1]; 1 mg, post-vaccination week 12", "value": "higher proliferative response"}, {"measurement": "proliferative response to PWM", "setting": "[1]; 1 mg, post-vaccination week 12", "value": "higher proliferative response"}, {"measurement": "mitogen-induced PBMC proliferation", "setting": "[1]; by week 8", "value": "did not influence"}, {"measurement": "population of CD5+ total T cells", "setting": "[2]", "value": "increased the populations; also recorded: increase in the populations of total T and Th lymphocytes"}, {"measurement": "plasma C-reactive protein concentrations", "setting": "C-reactive protein (CRP); post-vaccination, week 16", "value": "decreased plasma C-reactive protein concentrations; also recorded: lower concentrations of circulating CRP"}, {"measurement": "plasma CRP concentrations between diets", "setting": "C-reactive protein (CRP); through week 12", "value": "similar"}, {"measurement": "plasma CRP concentration averaged", "setting": "C-reactive protein (CRP); through week 12, average over diets", "value": 4.48, "unit": "mg/L"}, {"measurement": "NK cell cytotoxic activity", "setting": "[3]; week 8", "value": "no dietary treatment differences"}, {"measurement": "NK cell cytotoxic activity", "setting": "[3]; week 12, effector:target ratio 5:1, 5 and 10 mg", "value": "stimulated NK cell cytotoxic activity"}, {"measurement": "NK cell cytotoxic activity", "setting": "[3]; week 12, effector:target ratio 10:1, 1, 5 and 10 mg", "value": "stimulated NK cell cytotoxic activity"}, {"measurement": "population of B cells", "setting": "[4]; 20 mg, post-vaccination week 16", "value": "showed the highest response; also recorded: highest B cell subpopulation"}, {"measurement": "CD4 population", "setting": "[4]; any time period", "value": "did not effect changes"}, {"measurement": "CD8 population", "setting": "[4]; any time period", "value": "did not effect changes"}, {"measurement": "MHC class II population", "setting": "[4]; any time period", "value": "did not effect changes"}, {"measurement": "CD3 population", "setting": "[4]; dogs fed 30 mg", "value": "transient decrease in the CD3 population"}, {"measurement": "population of B cells", "setting": "[4]; week 6 and 12, dose-dependent", "value": "generally increased the population of B cells"}, {"measurement": "mitogen-induced splenocyte proliferation", "setting": "splenocyte", "value": "enhance mitogen-induced splenocyte proliferation"}, {"measurement": "NK cell activity", "setting": "[5]; week 6", "value": "dose-dependent increase in NK cell activity"}, {"measurement": "NK cell activity", "setting": "[5]; week 6, dogs fed 30 mg", "value": "significantly higher than control"}, {"measurement": "NK cell cytotoxic activity", "setting": "[5]; week 12, 20 mg", "value": "higher NK cell cytotoxic activity than control"}, {"measurement": "NK cell cytotoxic activity", "setting": "[5]; week 16 (trend as week 12: 20 mg higher, 40 mg not)", "value": "same trend continued through week 16"}, {"measurement": "blood hematology", "setting": "Hematology in dogs", "value": "generally showed no dietary effects"}, {"measurement": "in vitro antibody response of mouse splenocytes to T-dependent antigens", "setting": "mouse splenocytes", "value": "increase in vitro antibody response"}, {"measurement": "blood hematology parameters", "setting": "Hematology in cats", "value": "generally did not influence"}, {"measurement": "hematology values relative to normal range", "setting": "Hematology in cats", "value": "within the normal range"}]}]}
